Results on two compounds are retold here after US20150342921A1, “METFORMIN-ORLISTAT COMPOSITIONS” (LANDSTEINER SCIENTIFIC S.A. DE C.V., priority 2012, published 2015).

The conditions of series [1]: after two treatment periods, 26 volunteers, single dose; 7 in total, all light.
Text: All subjects agreed to participate in the study and were considered as healthy, all as determined through detection tests including medical history, physical examination, electrocardiogram, hematic biometry, blood chemistry with 24 elements, detection of drug abuse, general urine exam as well as hepatitis B and HIV tests. […] Smokers, pregnant women and subjects with a clinical history of hypersensitivity to drugs, foods or environmental substances were not included.
The prospective and longitudinal study was performed in a crossed and balanced, randomized design with two sequences, two periods, a single dose, single blind with a wash out period of 1 week between treatments. […] After dosing, serial blood samples were collected and vital signs monitored during a period of 24 hours. […] Vital signs were measured at 0, 1, 2, 3, 4, 6, 8, 12 and 24 hours after dosing. Subjects were held for 36 hours and monitored for safety and adverse effects throughout the study. Volunteers received a diet calculated at 3000 cal/day in each period.
The conditions of series [2]: cited from earlier work.
A short description of the next series: clinical. To be noted: both, human, in vivo.

For orientation: Cmax means the peak of the concentration-time curve. What is called Tmax is the time from dosing to the highest level.

Text for clinical: All subjects agreed to participate in the study and were considered as healthy, all as determined through detection tests including medical history, physical examination, electrocardiogram, hematic biometry, blood chemistry with 24 elements, detection of drug abuse, general urine exam as well as hepatitis B and HIV tests. Vital signs were considered normal with blood pressure of 50-90/84-120 mmHg, heart rate of 50-100 pulses/min, breathing rate was 14-25 breaths/min, and tympanic temperature of 36-37.8° C. […] Smokers, pregnant women and subjects with a clinical history of hypersensitivity to drugs, foods or environmental substances were not included.
The prospective and longitudinal study was performed in a crossed and balanced, randomized design with two sequences, two periods, a single dose, single blind with a wash out period of 1 week between treatments. […] After dosing, serial blood samples were collected and vital signs monitored during a period of 24 hours. Blood samples of 10 mL each were extracted at 0, 0.25, 0.5, 0.75, 1, 1.25, 1.5, 1.75, 2, 3, 4, 6, 8, 12 and 24 hours after administration. Vital signs were measured at 0, 1, 2, 3, 4, 6, 8, 12 and 24 hours after dosing. Subjects were held for 36 hours and monitored for safety and adverse effects throughout the study. Volunteers received a diet calculated at 3000 cal/day in each period. […]

Regarding `CN(C)C(=N)N=C(N)N` [Metformin], the “Number of adverse effects” value in series [1] is 3. Besides, in series [2] (in vivo), the “Excreted with no changes in the urine” value is around 90%. The Cmax in “clinical” (500 mg) came to 1390 ± 440 ng/mL. In addition, in “clinical” (po), the Tmax stood at 2.41 h.

As to `CCCCCCCCCCC[C@@H](C[C@@H]1OC(=O)[C@H]1CCCCCC)OC(=O)[C@H](CC(C)C)NC=O` [Orlistat], in series [2] (in vivo), the “Dietetic fat excreted in feces” value is recorded as “up to 30%” and the Excreted in feces is around 97%. In addition, the Oral bioavailability result in series [2] (metformin when fasting, orlistat administered orally) is “below 5%”.
